Experimental findings from patent publication US10123998B2, “Kinase modulation, and indications therefor” (Plexxikon Inc., priority 2012, dated 2018) are described below.

Some results are limits rather than exact numbers.

This experiment relates to Osteoclast precursor cells. Kind of experiment: Osteoclast differentiation assay. The class given is cell-based. The method, then:
Further, an osteoclast differentiation assay is used to assess the efficacy of Fms inhibitors for treating bone disease such as osteoarthritis. On day 0, Osteoclast Medium BulletKit (Lonza catalog # PT-8001, containing Media, FBS, L-Glutamine, PenStrep, RANKL, and M-CSF) media is thawed and the FBS, L-glutamine and PenStrep from the kit is added to 100 mL of Osteoclast Precursor Basal medium to provide the Osteoclast Precursor Growth Medium (OPGM). This is warmed to 37° C. Osteoclast precursor cells (Lonza catalog #2T-110) frozen in cryovial are warmed to 37° C. and transferred to a 50 mL conical tube. The cryovial is rinsed with OPGM and added dropwise to the conical tube of cells with swirling, then the volume is adjusted to 20-30 mL with addition of OPGM. The cells are centrifuged at 200×g for 15 minutes at room temperature and all but approximately 3 mL of supernatant is removed to a new conical tube. The cells are suspended in the remaining supernatant and the volume is adjusted to 10-15 mL with OPGM added dropwise with swirling. The cells are centrifuged at 200×g for 15 minutes at room temperature and all but approximately 1 mL of supernatant is removed. The cells are resuspended in the remaining supernatant, counted, and the volume adjusted with an appropriate amount of OPGM to provide approximately 1×10^5 cells/mL. A 0.1 mL aliquot of cells is added to each well of a 96-well plate. Compound to be tested is prepared in DMSO for plating at a high concentration of 2.5 mM, with 8 point 1:3 serial dilutions. A 1 μL aliquot of each compound dilution is added to a 96 well v-bottom polypropylene plate and 0.124 mL of OPGM is added to the compound. Then 50 μL of the compound in OPGM is added to the osteoclast precursor cells in 96-well plate (providing highest test concentration of 5 μM). RANKL (2 μg) from the BulletKit is reconstituted in 1 mL of OPGM, then vortexed and centrifuged briefly. A 792 μL aliquot of RANKL is added to 6 mL of OPGM and 50 μL is added to low control wells. Then 76.6 μL M-CSF ([…]) from the BulletKit is added to the remaining 5.8 mL of OPGM/RANKL solution (4×RANKL/M-CSF/OPGM). A 50 μL aliquot of this is added to the remaining wells, and the remainder is stored at 4° C. for later use. The plate is incubated at 37° C. for 6 days, then the remaining OPGM/RANKL/M-CSF solution is warmed to 37° C. The remaining approximately 198 μL is combined with 6 mL of OPGM. The media is aspirated from the osteoclast wells and 100 μL of RANKL/OPGM is added to the low controls. The remaining RANKL/OPGM is combined with the approximately 18.5 μL of remaining M-CSF. The remaining 4×RANKL/M-CSF/OPGM from day 0 is diluted to 1× and combined with the freshly prepared solution. A 0.1 mL aliquot of this is added to each osteoclast well and incubated for 37° C. for 1 day. The Acid Phosphatase kit (Cayman Chemical catalog #10008051) is warmed to room temperature. The assay buffer is diluted 5 mL with 45 mL of water. For each plate, two substrate tablets are dissolved in 4.5 mL of the assay buffer, mixing by vortex to break up the tablet. Stop solution is diluted 12 mL with 36 mL of water. In a tissue culture hood, 20 μL of each osteoclast well supernatant is transferred to a 96 well plate. A 30 μL aliquot of the substrate solution is added to each well and incubated at 37° C. for 20 minutes, then added […] stop solution to each well. The absorbance of each well is read at 405 nm on Safire plate reader. The absorbance reading is plotted vs. concentration to provide the IC50 for each compound.
For `COc1ccc(CNc2ncc(Cc3c[nH]c4ncc(C)cc34)cc2C)cn1` [Compound P-1554, (6-Methoxy-pyridin-3-ylmethyl)-[3-methyl-5-(5-methyl-1H-pyrrolo[2,3-b]pyridin-3-ylmethyl)-pyridin-2-yl]-amine], the IC50 was < 100 nM.

With `Fc1cncc(CNc2ccc(Cc3c[nH]c4ncc(Cl)cc34)c(F)n2)c1` [Compound P-2001, [5-(5-Chloro-1H-pyrrolo[2,3-b]pyridin-3-ylmethyl)-6-fluoro-pyridin-2-yl]-(5-fluoro-pyridin-3-ylmethyl)-amine], the IC50 was < 100 nM. With `Clc1cnc2[nH]cc(Cc3ccc(NCc4ccc(Cl)nc4)nc3)c2c1` [Compound P-2003, (6-Chloro-pyridin-3-ylmethyl)-[5-(5-chloro-1H-pyrrolo[2,3-b]pyridin-3-ylmethyl)-pyridin-2-yl]-amine] the figure was < 100 nM; with `Fc1ccc(CNc2ccc(Cc3c[nH]c4ncc(Cl)cc34)cn2)cn1` [Compound P-2004, [5-(5-Chloro-1H-pyrrolo[2,3-b]pyridin-3-ylmethyl)-pyridin-2-yl]-(6-fluoro-pyridin-3-ylmethyl)-amine], < 100 nM; with `Cc1cnc2[nH]cc(Cc3ccc(NCc4ccc(C(F)(F)F)nc4)nc3)c2c1` [Compound P-2019, [5-(5-Methyl-1H-pyrrolo[2,3-b]pyridin-3-ylmethyl)-pyridin-2-yl]-(6-trifluoromethyl-pyridin-3-ylmethyl)-amine], < 100 nM. To `COc1cnc2[nH]cc(Cc3ccc(NCc4cncc(F)c4)nc3F)c2c1` [Compound P-2028, [6-Fluoro-5-(5-methoxy-1H-pyrrolo[2,3-b]pyridin-3-ylmethyl)-pyridin-2-yl]-(5-fluoro-pyridin-3-ylmethyl)-amine] belongs < 100 nM; to `COc1ccc(CNc2ccc(Cc3c[nH]c4ncc(C)cc34)c(F)n2)cn1` [Compound P-2029, [6-Fluoro-5-(5-methyl-1H-pyrrolo[2,3-b]pyridin-3-ylmethyl)-pyridin-2-yl]-(6-methoxy-pyridin-3-ylmethyl)-amine], < 100 nM. To `COc1cnc2[nH]cc(Cc3ccc(NCc4ccc(OC)nc4)nc3F)c2c1` [Compound P-2030, [6-Fluoro-5-(5-methoxy-1H-pyrrolo[2,3-b]pyridin-3-ylmethyl)-pyridin-2-yl]-(6-methoxy-pyridin-3-ylmethyl)-amine] belongs < 100 nM. For `Cc1cnc2[nH]cc(Cc3ccc(NCc4ccc(C(F)(F)F)nc4)nc3F)c2c1` [Compound P-2031, [6-Fluoro-5-(5-methyl-1H-pyrrolo[2,3-b]pyridin-3-ylmethyl)-pyridin-2-yl]-(6-trifluoromethyl-pyridin-3-ylmethyl)-amine], the IC50 was < 100 nM. With `COc1cnc2[nH]cc(Cc3ccc(NCc4ccc(Cl)cc4)nc3F)c2c1` [Compound P-2032, (4-Chloro-benzyl)-[6-fluoro-5-(5-methoxy-1H-pyrrolo[2,3-b]pyridin-3-ylmethyl)-pyridin-2-yl]-amine] the figure was < 100 nM; with `COc1ccnc2[nH]cc(Cc3ccc(NCc4ccc(Cl)cc4)nc3F)c12` [Compound P-2037, (4-Chloro-benzyl)-[6-fluoro-5-(4-methoxy-1H-pyrrolo[2,3-b]pyridin-3-ylmethyl)-pyridin-2-yl]-amine], < 100 nM; with `COc1ccc(CNc2ncc(Cc3c[nH]c4ncc(Cl)cc34)cn2)cn1` [Compound P-2038, [5-(5-Chloro-1H-pyrrolo[2,3-b]pyridin-3-ylmethyl)-pyrimidin-2-yl]-(6-methoxy-pyridin-3-ylmethyl)-amine], < 100 nM. To `COc1ncccc1CNc1ccc(Cc2c[nH]c3ncccc23)c(F)n1` [Compound P-2045, [6-Fluoro-5-(1H-pyrrolo[2,3-b]pyridin-3-ylmethyl)-pyridin-2-yl]-(2-methoxy-pyridin-3-ylmethyl)-amine] belongs < 100 nM.

By IC50 is commonly meant the midpoint of a concentration-inhibition curve. The low end stands for inhibition by little substance, the high end for a need for much substance.
